Laboratory results published in article PMC6152024 (Molecules : A Journal of Synthetic Chemistry and Natural …, 2017).
Where two headings read alike, the source gives them in different places.

Key:
[1] = cited from earlier work
[2] = In vivo pharmacokinetic study of DCCTX and Gom A in rats; conditions: Sprague-Dawley, rat, plasma, iv, 300 mg/kg; for AUC(0-t): read-out: AUC0–8h; for MRT last: read-out: MRT0–8h
Description: Rats were randomly divided into five groups (groups 1−5, n = 6), respectively. To determine the short- and long-term effect of single-dose Gom A pretreatment on CYP3A metabolism of CTX, Gom A and CTX were administered to rats with different time intervals in groups 2−5. In brief, rats in group 1 (CTX alone group) were i.g. administered with saline (10 mL/kg, vehicle control), and rats in groups 2−5 were given Gom A (i.g.) at the dose of 20.8 mg/kg (50 μmol/kg). Rats in group 1 were intravenously (i.v.) administered with CTX (300 mg/kg) 0.5 h after saline administration. In groups 2–5, rats were given CTX (i.v.) 0.5, 6, 24 and 72 h after Gom A pretreatment, respectively. Mesna was injected (420 mg/kg, i.v.) 1 hour after CTX administration in all groups to prevent bladder injury in accordance with clinical practice.
Blood samples were collected from the postocular vein at 0.083, 0.25, 0.5, 1, 2, 3, 4, 6, 8, 12 and 24 h after CTX injection. Samples were transferred to heparin tubes and centrifuged at 5000 rpm for 15 min. Plasma was obtained and stored at −20 °C until required for further analysis.
UHPLC-MS/MS method (I): 6OH-Tes concentrations were analyzed according to the previous reports with slight modifications (Supplementary Figure S3). The terminated sample were centrifuged at 14,000 rpm for 10 min, 10 μL of each supernatant was injected into the UHPLC-MS/MS system for analysis. In general, an Agilent Elipse Plus 2.1 × 50 mm column packed with 1.8 µm C18 was applied. The column temperature was set as 30 °C at a flow rate of 0.3 mL/min. The mobile phase was consisted of aqueous 1% formic acid with the addition of 10 mM ammonium acetate solution (A) and methanol (B) with the gradient elution program set as follow: 5–50–80% B from 0–1–4 min. The ion transitions were m/z 305.0→269.0 for 6OH-Tes and m/z 181.0→111.0 for phenacetin (IS-I). UHPLC-MS method (II): DCCTX concentrations were determined using our previously developed UHPLC-MS/MS method (Supplementary Figure S4). For pharmacokinetic study, plasma samples were diluted 30-fold with plasma from drug-free rats. After vortexing for 2 min, 100 μL of each diluted sample was mixed with 400 μL acetonitrile (containing 6 ng/mL TNZ (IS-II), vortexed, and centrifuged at 14,000 rpm for 10 min. 100 μL supernatant of each sample was mixed with 400 μL aqueous solution containing 10% acetonitrile followed by a rough centrifugation. For HLMs inhibition study, samples were vortexed for 1 min after reaction termination, and the mixture was then centrifuged at 14,000 rpm for 10 min. After centrifugation, the obtained supernatant (5 μL) was injected into the UHPLC-MS/MS system, using methanol/10 mM ammonium acetate aqueous solution as the mobile phase at a flow rate of 0.25 mL/min. The ion transitions were set as m/z 199.2→78 for DCCTX and m/z 248.1→121.1 for TNZ (IS-II). UHPLC-MS/MS method (III): Gom A concentrations were determined using slightly modified LC/MS method which developed by our laboratory. Briefly, a 100 µL plasma sample was transferred to a 10 mL centrifuge tube with addition of 20 µL IS solution and 20 µL water/acetonitrile (90:10, v/v), vortexed for 30 s and then extracted using 3 mL methyl tertiary butyl ether. After extraction, the sample was centrifuged at 5000 rpm for 10 min. The organic layer was quantitatively transferred to a 5 mL glass tube and evaporated to dryness at 35 °C. Then the dried extract was reconstituted in 100 µL solvent (water–acetonitrile, 20:80, v/v) followed by injection of 10 µL aliquot into LC-MS/MS system. Separation was performed on a Zorbax SB-C18 reserved-phase column (100 mm × 2.1 mm i.d., 3.5 µm) with the mobile phase consisting of acetonitrile, methanol and water −0.1% formic acid (72:18:10, v/v/v) at a flow rate of 0.3 mL/min. The ion transitions were set as m/z 399→329 for Gom A and m/z 387.0→145.0 for bifendate (IS-III). […]

[3] = Group 1: CTX 300 mg/kg i.v. alone (saline 0.5 h before)
[4] = Group 2: CTX 300 mg/kg i.v. 0.5 h after Gom A 20.8 mg/kg i.g.
[5] = Group 3: CTX 300 mg/kg i.v. 6 h after Gom A 20.8 mg/kg i.g.
[6] = Group 4: CTX 300 mg/kg i.v. 24 h after Gom A 20.8 mg/kg i.g.
[7] = Group 5: CTX 300 mg/kg i.v. 72 h after Gom A 20.8 mg/kg i.g.

O=P1(N(CCCl)CCCl)NCCCO1 (stereo not drawn) [CTX, cyclophosphamide]
plasma protein binding rate [1]: approximately 9%

O=P1(NCCCl)NCCCO1 (stereo not drawn) [DCCTX, 2-dechloroethylcyclophosphamide]
Cmax [2, 3]: 8600 ± 1300 ng/mL
Tmax [2, 3]: 2 ± 0.1 h
half-life [2, 3]: 2.2 ± 0.5 h
AUC(0-t) [2, 3]: 32500 ± 8400 ng·h/mL
MRT last [2, 3]: 3.3 ± 0.2 h
Cmax [2, 4]: 1900 ± 200 ng/mL
Tmax [2, 4]: 2.9 ± 0.6 h
half-life [2, 4]: 3.1 ± 0.9 h
AUC(0-t) [2, 4]: 8900 ± 300 ng·h/mL
MRT last [2, 4]: 3.8 ± 0.2 h
Cmax [2, 5]: 2600 ± 500 ng/mL
Tmax [2, 5]: 3.7 ± 0.8 h
half-life [2, 5]: 3.2 ± 0.8 h
AUC(0-t) [2, 5]: 11800 ± 2500 ng·h/mL
MRT last [2, 5]: 4.2 ± 0.1 h
Cmax [2, 6]: 16200 ± 1200 ng/mL
Tmax [2, 6]: 2 ± 0.1 h
half-life [2, 6]: 2 ± 0.4 h
AUC(0-t) [2, 6]: 65900 ± 12400 ng·h/mL
MRT last [2, 6]: 3.3 ± 0.2 h
Cmax [2, 7]: 20000 ± 3100 ng/mL
Tmax [2, 7]: 3.3 ± 0.5 h
half-life [2, 7]: 3.8 ± 1.2 h
AUC(0-t) [2, 7]: 79200 ± 19100 ng·h/mL
MRT last [2, 7]: 3.7 ± 0.2 h

C=CC[C@@H]1/C=C(\C)C[C@H](C)C[C@H](OC)[C@H]2O[C@@](O)(C(=O)C(=O)N3CCCC[C@H]3C(=O)O[C@H](/C(C)=C/[C@@H]3CC[C@@H](O)[C@H](OC)C3)[C@H](C)[C@@H](O)CC1=O)[C@H](C)C[C@@H]2OC [Tacrolimus]
plasma protein binding [1]: strongly bound to plasma protein
